The subject of data set [1] is Quadruplex DNA. The data set can be described thus: Binding affinity to human G-quadruplex telomeric DNA F21T (5'-duplex FAM-GGGTTAGGGTTAGGGTTAGGG-TAM-3') assessed as stabilization by measuring change in melting temperature at 5 uM by FRET melting assay. The class given is nucleic-acid assay.
For data set [2], the system named is Quadruplex DNA. The data set can be described thus: Binding affinity to human G-quadruplex telomeric DNA F25CebT (5'-duplex FAM-AGGGTGGGTGTAAGTGTGGGTGGGT-TAM-3') assessed as stabilization by measuring change in melting temperature at 5 uM by FRET melting assay. The class given is nucleic-acid assay.
The subject of another data set is NHDF. The data set can be described thus: (§1) Cytotoxicity against human NHDF cells assessed as cell viability at 10 uM after 48 hrs by MTT assay. The class given is toxicity, cell-based. The settings on record: nhdf, 48 h, 10 µM. (Formazan colour is commonly taken as a measure of viable cells.)
The next data set concerns NCI-H1299. The data set can be described thus: Antiproliferative activity against human NCI-H1299 cells assessed as cell viability at 10 uM after 48 hrs by MTT assay. Format: functional.
The next data set concerns A549. The data set can be described thus: Antiproliferative activity against human A549 cells assessed as cell viability at 10 uM after 48 hrs by MTT assay. The class given is functional. The settings on record: for viability at 10 µM: read-out: Activity.
Data set [3] can be described thus: as §1. Format: toxicity, cell-based. The settings on record: NHDF cells, read-out: Activity.
Data set [4] relates to Quadruplex DNA. The data set can be described thus: Binding affinity to G-quadruplex telomeric DNA 26ceb (5'-duplex AAGGGTGGGTGTAAGTGTGGGTGGGT-3') (unknown origin) assessed as stabilization by measuring change in melting temperature at 1 M by circular dichroism (CD) spectroscopy. The class given is nucleic-acid assay. On the technique in general: Circular dichroism is widely used to follow secondary structure.

In data set [5] the test system is Quadruplex DNA. The data set can be described thus: Binding affinity to G-quadruplex telomeric DNA 22CTA (5'-duplex AGGGCTAGGGCTAGGGCTAGGG-3') (unknown origin) assessed as stabilization by measuring change in melting temperature at 3 M by circular dichroism (CD) spectroscopy. The class given is nucleic-acid assay.
Data set [6] deals with Quadruplex DNA. The data set can be described thus: Binding affinity to human G-quadruplex telomeric DNA F21CTAT (5'-duplex FAM-GGGCTAGGGCTAGGGCTAGGG-TAM-3') assessed as stabilization by measuring change in melting temperature at 5 uM by FRET melting assay. The class given is nucleic-acid assay.
Data set [7] concerns Quadruplex DNA. The data set can be described thus: Binding affinity to G-quadruplex telomeric DNA 22AG (5'-duplex AGGGTTAGGGTTAGGGTTAGGG-3') (unknown origin) assessed as stabilization by measuring change in melting temperature at 1 M by circular dichroism (CD) spectroscopy. Format: nucleic-acid assay.
Data set [8] relates to Quadruplex DNA. The data set can be described thus: Binding affinity to G-quadruplex telomeric DNA 22CTA (5'-duplex AGGGCTAGGGCTAGGGCTAGGG-3') (unknown origin) assessed as stabilization by measuring change in melting temperature at 5 M by circular dichroism (CD) spectroscopy. The class given is nucleic-acid assay.
For data set [9], the system named is Quadruplex DNA. The data set can be described thus: Binding affinity to G-quadruplex telomeric DNA 22CTA (5'-duplex AGGGCTAGGGCTAGGGCTAGGG-3') (unknown origin) assessed as stabilization by measuring change in melting temperature at 1 M by circular dichroism (CD) spectroscopy. Format: nucleic-acid assay.
Data set [10] relates to Quadruplex DNA. The data set can be described thus: Binding affinity to G-quadruplex telomeric DNA 22AG (5'-duplex AGGGTTAGGGTTAGGGTTAGGG-3') (unknown origin) assessed as stabilization by measuring change in melting temperature at 5 M by circular dichroism (CD) spectroscopy. The class given is nucleic-acid assay.
Data set [11] relates to Quadruplex DNA. The data set can be described thus: Binding affinity to G-quadruplex telomeric DNA 26ceb (5'-duplex AAGGGTGGGTGTAAGTGTGGGTGGGT-3') (unknown origin) assessed as stabilization by measuring change in melting temperature at 5 M by circular dichroism (CD) spectroscopy. Format: nucleic-acid assay.
Data set [12] concerns Quadruplex DNA. The data set can be described thus: Binding affinity to G-quadruplex telomeric DNA 26ceb (5'-duplex AAGGGTGGGTGTAAGTGTGGGTGGGT-3') (unknown origin) assessed as stabilization by measuring change in melting temperature at 3 M by circular dichroism (CD) spectroscopy. Format: nucleic-acid assay.
Data set [13] relates to Quadruplex DNA. The data set can be described thus: Binding affinity to G-quadruplex telomeric DNA 22AG (5'-duplex AGGGTTAGGGTTAGGGTTAGGG-3') (unknown origin) assessed as stabilization by measuring change in melting temperature at 3 M by circular dichroism (CD) spectroscopy. Format: nucleic-acid assay.
Data set [14] relates to Quadruplex DNA. The data set can be described thus: Binding affinity to G-quadruplex telomeric DNA 22CTA (5'-duplex AGGGCTAGGGCTAGGGCTAGGG-3') (unknown origin) assessed as stabilization by measuring change in melting temperature at 0.5 M by circular dichroism (CD) spectroscopy. The class given is nucleic-acid assay.
Data set [15] concerns Quadruplex DNA. The data set can be described thus: Binding affinity to G-quadruplex telomeric DNA 22AG (5'-duplex AGGGTTAGGGTTAGGGTTAGGG-3') (unknown origin) assessed as stabilization by measuring change in melting temperature at 0.5 M by circular dichroism (CD) spectroscopy. The class given is nucleic-acid assay.
The subject of data set [16] is Quadruplex DNA. The data set can be described thus: Binding affinity to G-quadruplex telomeric DNA 26ceb (5'-duplex AAGGGTGGGTGTAAGTGTGGGTGGGT-3') (unknown origin) assessed as stabilization by measuring change in melting temperature at 0.5 M by circular dichroism (CD) spectroscopy. The class given is nucleic-acid assay.
For data set [17], the system named is Quadruplex DNA. The data set can be described thus: Binding affinity to G-quadruplex telomeric DNA FdxT (5'-duplex FAM-TATAGCTAT-PEG-TATAGCTATA-TAM-3') assessed as stabilization by measuring change in melting temperature at 5 uM by FRET melting assay. Format: nucleic-acid assay.

SMILES strings stand for the structures. The source made the active and inactive calls. The calls are words filed in the database; no cut-off is given here.

Among the data in ChEMBL document CHEMBL5214969, “Synthesis and evaluation of 2,9-disubstituted-1,10-phenanthroline derivatives as G-quadruplex binders” (Bioorg Med Chem, 2022) are ΔTm, Activity and viability values, retold here.

Usually ΔTm stands for the shift of the melting midpoint relative to a reference. Consider `CCCCCC/N=C/c1ccc2ccc3ccc(/C=N/CCCCCC)nc3c2n1`, for which the ΔTm in the data set on Quadruplex DNA [1] is 1.1 °C; with Quadruplex DNA [2] it was 0.7 °C. Further, the Activity result with NHDF was “Non-Toxic”.

Consider `O=C(N/N=C/c1c(O)ccc2ccccc12)c1ccc2ccc3ccc(C(=O)N/N=C/c4c(O)ccc5ccccc45)nc3c2n1`, for which the ΔTm turned out to be 1 °C in the data set with Quadruplex DNA [1] and 2.6 °C with Quadruplex DNA [2].

For `O=C1NCCNCCNC(=O)c2ccc3ccc4ccc1nc4c3n2`, the values for the ΔTm with Quadruplex DNA [1] and with Quadruplex DNA [2] were 0.4 °C and 1.7 °C, respectively. Moreover, the result in the data set with NCI-H1299 and in the data set with A549 was Active.

Take `CC(C)(C)OC(=O)NCCNC(=O)c1ccc2ccc3ccc(C(=O)NCCNC(=O)OC(C)(C)C)nc3c2n1`: the ΔTm in the data set on Quadruplex DNA [1] turned out to be 0.7 °C; with Quadruplex DNA [2], 0.8 °C. In addition, the outcome in the data set with NCI-H1299 and in the data set with A549 was Active.

Regarding `O=C1NCCOCCOCCNC(=O)c2ccc3ccc4ccc1nc4c3n2`, the figures for the ΔTm in the data set on Quadruplex DNA [1] and with Quadruplex DNA [2] were 0.5 °C and 0.4 °C, respectively. Further, the outcome in the data set with NCI-H1299 and with A549 was Active.

For the molecule `CC(C)(C)OC(=O)NCC/N=C/c1ccc2ccc3ccc(/C=N/CCNC(=O)OC(C)(C)C)nc3c2n1`, the ΔTm with Quadruplex DNA [1] and in the data set on Quadruplex DNA [2] was 0.6 °C throughout.

Turning to `OCCNCc1ccc2ccc3ccc(CNCCO)nc3c2n1`, the ΔTm came to 1.2 °C in the data set with Quadruplex DNA [1] and 0.4 °C in the data set on Quadruplex DNA [2].

As to `NNC(=O)c1ccc2ccc3ccc(C(=O)NN)nc3c2n1`, the ΔTm was found to be 1.8 °C in the data set on Quadruplex DNA [1] and 1.2 °C in the data set on Quadruplex DNA [2]. Besides, the outcome in the data set on NCI-H1299 and in the data set with A549 was Active.

With `OCC/N=C/c1ccc2ccc3ccc(/C=N/CCO)nc3c2n1`, the ΔTm was 1.1 °C in the data set with Quadruplex DNA [1] and 0.9 °C in the data set on Quadruplex DNA [2].

Consider `COc1ccc(/N=C/c2ccc3ccc4ccc(/C=N/c5ccc(OC)cc5)nc4c3n2)cc1`, for which the figures for the ΔTm in the data set with Quadruplex DNA [1] and in the data set with Quadruplex DNA [2] were 0.8 °C and 0.7 °C, respectively.

Turning to `CCCCCCNCc1ccc2ccc3ccc(CNCCCCCC)nc3c2n1`, in the data set with Quadruplex DNA [1], the ΔTm turned out to be 5.3 °C. Besides, the viability at 10 µM in the data set on NCI-H1299 (read-out: Activity) stood at 42.9%; in the data set on A549, 27.4%. Further, the viability at 48 h, 10 µM in data set [3] was 22.4%.

With `NCCNCc1ccc2ccc3ccc(CNCCN)nc3c2n1.O=C(O)C(F)(F)F.O=C(O)C(F)(F)F.O=C(O)C(F)(F)F.O=C(O)C(F)(F)F`, the thermal shift (ΔTm) with Quadruplex DNA [4] was found to be 2.1 °C; in the data set with Quadruplex DNA [5], 1.9 °C; in the data set on Quadruplex DNA [6], 5.2 °C; in the data set on Quadruplex DNA [7] it was 2.1 °C; with Quadruplex DNA [8], 2.1 °C; in the data set with Quadruplex DNA [9], 1.3 °C. For the same molecule, the thermal shift (ΔTm) with Quadruplex DNA [10] turned out to be 3.5 °C; in the data set with Quadruplex DNA [11], 7.6 °C; in the data set with Quadruplex DNA [12], 5.4 °C; with Quadruplex DNA [13], 3.4 °C; in the data set on Quadruplex DNA [1], 12 °C; in the data set with Quadruplex DNA [2], 7.8 °C. The values for the ΔTm in the data set with Quadruplex DNA [14], in the data set on Quadruplex DNA [15] and with Quadruplex DNA [16] were 0.6 °C, 0.7 °C and 0.9 °C, respectively. Moreover, in the data set with NHDF, the Activity entry was “Toxic”.

Regarding `C[n+]1cc(NC(=O)c2ccc3ccc4ccc(C(=O)Nc5cc6ccccc6[n+](C)c5)nc4c3n2)cc2ccccc21`, the ΔTm in the data set with Quadruplex DNA [6] was > 30 °C; with Quadruplex DNA [1], > 30 °C; with Quadruplex DNA [2], > 30 °C; with Quadruplex DNA [17] it was 0.6 °C.

Turning to `NCCNC(=O)c1ccc2ccc3ccc(C(=O)NCCN)nc3c2n1`, the ΔTm with Quadruplex DNA [4] came to 4.6 °C; in the data set with Quadruplex DNA [5] it was 2.9 °C; in the data set on Quadruplex DNA [6], 2.9 °C; with Quadruplex DNA [7], 0.3 °C; in the data set with Quadruplex DNA [8] it was 4.3 °C; in the data set on Quadruplex DNA [9] it was 1.3 °C. For the same molecule, the ΔTm amounted to 1.4 °C in the data set on Quadruplex DNA [10]; 11.7 °C in the data set on Quadruplex DNA [11]; 9.7 °C in the data set with Quadruplex DNA [12]; 2.5 °C in the data set with Quadruplex DNA [13]; 7.2 °C in the data set with Quadruplex DNA [1]; 1.8 °C with Quadruplex DNA [2]. Besides, the figures for the ΔTm with Quadruplex DNA [14], in the data set with Quadruplex DNA [15] and in the data set with Quadruplex DNA [16] were 0.4 °C, 0.5 °C and 3.4 °C, respectively. Besides, the result with NCI-H1299 was Active. The viability at 10 µM in the data set with A549 was found to be 24.5%. The viability at 48 h, 10 µM in data set [3] was found to be 75.1%.

As to `CC/N=C/c1ccc2ccc3ccc(/C=N/CC)nc3c2n1`, the figures for the ΔTm with Quadruplex DNA [1] and with Quadruplex DNA [2] were 1.5 °C and 1.2 °C, respectively.

For the molecule `COc1ccc(NCc2ccc3ccc4ccc(CNc5ccc(OC)cc5)nc4c3n2)cc1`, the ΔTm with Quadruplex DNA [4] is 2.3 °C; in the data set on Quadruplex DNA [5], 2.6 °C; with Quadruplex DNA [6], 4.1 °C; in the data set on Quadruplex DNA [7], 0.9 °C; in the data set with Quadruplex DNA [8] it was 3.1 °C; in the data set with Quadruplex DNA [9], 1.8 °C. Moreover, the ΔTm in the data set on Quadruplex DNA [10] worked out at 1.1 °C; in the data set with Quadruplex DNA [11], 8.1 °C; in the data set with Quadruplex DNA [12] it was 5.9 °C; in the data set with Quadruplex DNA [13], 1.5 °C; in the data set with Quadruplex DNA [1], 9.2 °C; in the data set on Quadruplex DNA [2] it was 3.8 °C. Besides, the ΔTm was 0.9 °C with Quadruplex DNA [14], 0.5 °C in the data set with Quadruplex DNA [15] and 1.1 °C with Quadruplex DNA [16]. For the same molecule, in the data set on NHDF, the Activity result is reported as “Toxic”.

In the case of `CC(C)(C)OC(=O)NCCNCc1ccc2ccc3ccc(CNCCNC(=O)OC(C)(C)C)nc3c2n1`, the ΔTm in the data set with Quadruplex DNA [1] amounted to 1.2 °C; with Quadruplex DNA [2] it was 0.9 °C.
